Structures are written as SMILES. Converted amounts (≈) assume the structure as drawn. Positions of bridges follow the written chain, without caps; N, C: chain ends. Non-standard residues stand in square brackets, D forms with d. Residues, ends and D or L forms follow the SMILES beside them. *: point of attachment. Heptanoyl(6-Me) = CC(C)CCCCC(=O)*; X38 = O=C(c1ccc(Cl)cc1C(F)(F)F)*; X41 = O=S(=O)(c1ccc(Cl)cc1Cl)*; Nonanoyl = CCCCCCCCC(=O)*; Dab = NCC[C@H](N)C(=O)O; Abu = CC[C@H](N)C(=O)O; Dap = NC[C@H](N)C(=O)O

The test system of test [1] is Acinetobacter baumannii. The gist of the method: (§1)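 Read-out is the MIC, obtained by broth microdilution under CLSI guidance. Lipopeptides (TFA salt form) were diluted in cation-adjusted Mueller-Hinton broth, with polymyxin B sulphate run alongside as control.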
Test [2] relates to Enterobacter cloacae. The gist of the method:
as §1

Test [3] has as its system Pseudomonas aeruginosa. The method, boiled down:
as §1

`CCCCCCCCC(=O)N[C@@H](CCN)C(=O)N[C@H](C(=O)N[C@H](CO)C(=O)N[C@H]1CCNC(=O)[C@H]([C@@H](C)O)NC(=O)[C@H](CCN)NC(=O)[C@H](CCN)NC(=O)[C@H]([C@@H](C)O)NC(=O)[C@@H](CC(C)C)NC(=O)[C@H](CCN)NC1=O)[C@@H](C)O` [Compound 17] (Nonanoyl-[Dab]T[dS][Dab][Dab][dL]T[Dab][Dab]T; lactam 4-C): in test [1], the “Minimum inhibitory concentration, Ab A ATCC 17978” value is less than 0.125 µg/mL; the “Minimum inhibitory concentration, Ab ATCC 19606” value was less than 0.125 µg/mL; the “Minimum inhibitory concentration, Ab FADDI-AB034” value was 0.25 µg/mL (≈ 0.218 µM). Besides, in test [2], the “Minimum inhibitory concentration, Ec FADDI-EC001” value was 0.25 µg/mL (≈ 0.218 µM); the “Minimum inhibitory concentration, Ec FADDI-EC003” value amounted to 0.25 µg/mL (≈ 0.218 µM); the “Minimum inhibitory concentration, Ec FADDI-EC006” value turned out to be 0.5 µg/mL (≈ 0.437 µM). For the same compound, in test [3], the “Minimum inhibitory concentration, Pa ATCC 27853” value stood at 2 µg/mL (≈ 1.75 µM); the “Minimum inhibitory concentration, Pa FADDI-PA022” value is 4 µg/mL (≈ 3.5 µM); the “Minimum inhibitory concentration, Pa FADDI-PA025” value came to 16 µg/mL (≈ 14 µM).
Consider `CC[C@@H]1NC(=O)[C@@H](CC(C)C)NC(=O)[C@H](CCN)NC(=O)[C@@H](NC(=O)[C@H](CN)NC(=O)[C@@H](NC(=O)[C@H](CCN)NS(=O)(=O)c2ccc(Cl)cc2Cl)[C@@H](C)O)CCNC(=O)[C@H]([C@@H](C)O)NC(=O)[C@H](CCN)NC(=O)[C@H](CCN)NC1=O` [Compound 148] (X41-[Dab]T[Dap][Dab][Dab][dL][Abu][Dab][Dab]T; lactam 4-C), for which, in test [1] (Acinetobacter baumannii ATCC 17978, broth microdilution in CAMHB, TFA salt), the “Minimum inhibitory concentration (MIC), Ab ATCC 17978” value was found to be 0.5 µg/mL. Besides, in test [1] (Acinetobacter baumannii ATCC 19606, broth microdilution in CAMHB, TFA salt), the “Minimum inhibitory concentration (MIC), Ab ATCC 19606” value turned out to be 2 µg/mL. In test [1] (Acinetobacter baumannii FADDI-AB034, broth microdilution in CAMHB, TFA salt), the “Minimum inhibitory concentration (MIC), Ab FADDI-AB034” value amounted to 1 µg/mL. In addition, the “Minimum inhibitory concentration (MIC), Ec FADDI-EC001” value in test [2] (Enterobacter cloacae FADDI-EC001, broth microdilution in CAMHB, TFA salt) was determined as 2 µg/mL. Also, in test [2] (Enterobacter cloacae FADDI-EC003, broth microdilution in CAMHB, TFA salt), the “Minimum inhibitory concentration (MIC), Ec FADDI-EC003” value amounted to 4 µg/mL. For the same compound, the “Minimum inhibitory concentration (MIC), Ec FADDI-EC006” value in test [2] (Enterobacter cloacae FADDI-EC006, broth microdilution in CAMHB, TFA salt) was 1 µg/mL. For the same compound, the “Minimum inhibitory concentration (MIC), Pa ATCC 27853” value in test [3] (Pseudomonas aeruginosa ATCC 27853, broth microdilution in CAMHB, TFA salt) turned out to be 1 µg/mL. For the same compound, the “Minimum inhibitory concentration (MIC), Pa FADDI-PA022” value in test [3] (Pseudomonas aeruginosa FADDI-PA022, broth microdilution in CAMHB, TFA salt) was found to be 1 µg/mL. The “Minimum inhibitory concentration (MIC), Pa FADDI-PA025” value in test [3] (Pseudomonas aeruginosa FADDI-PA025, broth microdilution in CAMHB, TFA salt) worked out at 16 µg/mL.
On to `CC[C@@H]1NC(=O)[C@@H](CC(C)C)NC(=O)[C@H](CCN)NC(=O)[C@@H](NC(=O)[C@H](CN)NC(=O)[C@@H](NC(=O)[C@H](CCN)NC(=O)CCCCC(C)C)[C@@H](C)O)CCNC(=O)[C@H]([C@@H](C)O)NC(=O)[C@H](CCN)NC(=O)[C@H](CCN)NC1=O` [Compound 66] ({Heptanoyl(6-Me)}-[Dab]T[Dap][Dab][Dab][dL][Abu][Dab][Dab]T; lactam 4-C), for which, in test [1], the “Minimum inhibitory concentration, Ab A ATCC 17978” value is 0.25 µg/mL (≈ 0.225 µM); the “Minimum inhibitory concentration, Ab ATCC 19606” value came to 0.25 µg/mL (≈ 0.225 µM); the “Minimum inhibitory concentration, Ab FADDI-AB034” value was determined as 0.5 µg/mL (≈ 0.449 µM). In addition, in test [2], the “Minimum inhibitory concentration, Ec FADDI-EC001” value amounted to 0.5 µg/mL (≈ 0.449 µM); the “Minimum inhibitory concentration, Ec FADDI-EC003” value is less than 0.125 µg/mL; the “Minimum inhibitory concentration, Ec FADDI-EC006” value stood at 0.25 µg/mL (≈ 0.225 µM). In test [3], the “Minimum inhibitory concentration, Pa ATCC 27853” value was 1 µg/mL (≈ 0.898 µM); the “Minimum inhibitory concentration, Pa FADDI-PA022” value worked out at 2 µg/mL (≈ 1.8 µM); the “Minimum inhibitory concentration, Pa FADDI-PA025” value was 4 µg/mL (≈ 3.59 µM).
Take `CC[C@@H]1NC(=O)[C@@H](CC(C)C)NC(=O)[C@H](CCN)NC(=O)[C@@H](NC(=O)[C@H](CN)NC(=O)[C@@H](NC(=O)[C@H](CCN)NC(=O)c2ccc(Cl)cc2C(F)(F)F)[C@@H](C)O)CCNC(=O)[C@H]([C@@H](C)O)NC(=O)[C@H](CCN)NC(=O)[C@H](CCN)NC1=O` [Compound 136] (X38-[Dab]T[Dap][Dab][Dab][dL][Abu][Dab][Dab]T; lactam 4-C): in test [1], the “Minimum inhibitory concentration, Ab A ATCC 17978” value worked out at 0.5 µg/mL (≈ 0.419 µM); the “Minimum inhibitory concentration, Ab ATCC 19606” value amounted to 0.5 µg/mL (≈ 0.419 µM); the “Minimum inhibitory concentration, Ab FADDI-AB034” value stood at 0.25 µg/mL (≈ 0.209 µM). In test [2], the “Minimum inhibitory concentration, Ec FADDI-EC001” value is less than 0.125 µg/mL; the “Minimum inhibitory concentration, Ec FADDI-EC003” value is less than 0.125 µg/mL; the “Minimum inhibitory concentration, Ec FADDI-EC006” value was 0.25 µg/mL (≈ 0.209 µM). In addition, in test [3], the “Minimum inhibitory concentration, Pa ATCC 27853” value was found to be 0.5 µg/mL (≈ 0.419 µM); the “Minimum inhibitory concentration, Pa FADDI-PA022” value came to 2 µg/mL (≈ 1.68 µM); the “Minimum inhibitory concentration, Pa FADDI-PA025” value was 1 µg/mL (≈ 0.838 µM).

These data come from patent USRE48335E1, “Polymyxin derivatives as antimicrobial compounds” (priority 2014, dated 2020).
